Measurements as given in ChEMBL document CHEMBL1201862, “PubChem BioAssay data set” (2004).
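Five concentrations, 48 hours, 96-well plates. GI50 = concentration required for 50% inhibition of growth.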 Active and inactive are the calls of the source. Cut-off read from the data, not from the text of the source: active = GI50 up to about 1.1 µM and inactive = higher.

How the values were obtained:
Assay in all cases: NCI tumour cell line growth inhibition, 48 h
HOP-92 = tested on: HOP-92
DU-145 = tested on: DU-145
SNB-75 = tested on: SNB-75
NCI-H226 = tested on: NCI-H226
HL-60 = tested on: HL-60
786-0 = tested on: 786-0
CCRF-CEM = tested on: CCRF-CEM
A498 = tested on: A498
K562 = tested on: K562
HOP-62 = tested on: HOP-62
OVCAR-3 = tested on: OVCAR-3
MDA-MB-231 = tested on: MDA-MB-231
KM12 = tested on: KM12
UO-31 = tested on: UO-31
M14 = tested on: M14
OVCAR-8 = tested on: OVCAR-8
SK-MEL-5 = tested on: SK-MEL-5
T47D = tested on: T47D
UACC-257 = tested on: UACC-257
SF-295 = tested on: SF-295
SF-268 = tested on: SF-268
BT-549 = tested on: BT-549
COLO 205 = tested on: COLO 205
OVCAR-5 = tested on: OVCAR-5
CAKI-1 = tested on: CAKI-1
SNB-19 = tested on: SNB-19
TK-10 = tested on: TK-10
SR = tested on: SR
MDA-N = tested on: MDA-N
SF-539 = tested on: SF-539
MDA-MB-435 = tested on: MDA-MB-435
PC-3 = tested on: PC-3
SN12C = tested on: SN12C
LOX IMVI = tested on: LOX IMVI
IGROV-1 = tested on: IGROV-1
NCI-H460 = tested on: NCI-H460
MCF7 = tested on: MCF7
UACC-62 = tested on: UACC-62
ACHN = tested on: ACHN
SK-OV-3 = tested on: SK-OV-3
A549 = tested on: A549
NCI-H23 = tested on: NCI-H23
SK-MEL-28 = tested on: SK-MEL-28
HCT-116 = tested on: HCT-116
EKVX = tested on: EKVX
OVCAR-4 = tested on: OVCAR-4
Malme-3M = tested on: Malme-3M
SK-MEL-2 = tested on: SK-MEL-2
HCT-15 = tested on: HCT-15
U-251 = tested on: U-251
RXF 393 = tested on: RXF 393
RPMI-8226 = tested on: RPMI-8226
NCI-H522 = tested on: NCI-H522
NCI/ADR-RES = tested on: NCI/ADR-RES
HCC 2998 = tested on: HCC 2998
SW-620 = tested on: SW-620
HT-29 = tested on: HT-29
MOLT-4 = tested on: MOLT-4
Hs-578T = tested on: Hs-578T

CCN(CC)C1Oc2cc3c(cc2C(c2cc(OC)c(O)c(OC)c2)C1C)OCO3 (stereo not drawn)
GI50 (HOP-92): 15.5 µM (inactive) | GI50 (DU-145): 29.9 µM (inactive) | GI50 (SNB-75): 3.48 µM (inactive) | GI50 (NCI-H226): 10.8 µM (inactive) | GI50 (HL-60): 2.69 µM (inactive) | GI50 (786-0): 10.4 µM (inactive) | GI50 (CCRF-CEM): 7.29 µM (inactive) | GI50 (A498): 24.6 µM (inactive) | GI50 (K562): 2.98 µM (inactive) | GI50 (HOP-62): 10.1 µM (inactive) | GI50 (OVCAR-3): 7.21 µM (inactive) | GI50 (MDA-MB-231): 18.8 µM (inactive) | GI50 (KM12): 4.44 µM (inactive) | GI50 (UO-31): 19.6 µM (inactive) | GI50 (M14): 4.69 µM (inactive) | GI50 (OVCAR-8): 14.8 µM (inactive) | GI50 (SK-MEL-5): 3.63 µM (inactive) | GI50 (T47D): 16.8 µM (inactive) | GI50 (UACC-257): 25 µM (inactive) | GI50 (SF-295): 5.22 µM (inactive) | GI50 (SF-268): 16.3 µM (inactive) | GI50 (BT-549): 6.95 µM (inactive) | GI50 (COLO 205): 15.5 µM (inactive) | GI50 (OVCAR-5): 14.2 µM (inactive) | GI50 (CAKI-1): 12.5 µM (inactive) | GI50 (SNB-19): 16.2 µM (inactive) | GI50 (TK-10): 24.9 µM (inactive) | GI50 (SR): 4.57 µM (inactive) | GI50 (MDA-N): 1.98 µM (inactive) | GI50 (SF-539): 11.3 µM (inactive) | GI50 (MDA-MB-435): 2.14 µM (inactive) | GI50 (PC-3): 14.4 µM (inactive) | GI50 (SN12C): 15.2 µM (inactive) | GI50 (LOX IMVI): 9.66 µM (inactive) | GI50 (IGROV-1): 9.98 µM (inactive) | GI50 (NCI-H460): 6.18 µM (inactive) | GI50 (MCF7): 4.85 µM (inactive) | GI50 (UACC-62): 4.49 µM (inactive) | GI50 (ACHN): 18.3 µM (inactive) | GI50 (SK-OV-3): 9.18 µM (inactive) | GI50 (A549): 11.7 µM (inactive) | GI50 (NCI-H23): 28.8 µM (inactive) | GI50 (SK-MEL-28): 14.2 µM (inactive) | GI50 (HCT-116): 4.53 µM (inactive) | GI50 (EKVX): 36.8 µM (inactive) | GI50 (OVCAR-4): 22.3 µM (inactive) | GI50 (Malme-3M): 3.55 µM (inactive) | GI50 (SK-MEL-2): 18.7 µM (inactive) | GI50 (HCT-15): 12.6 µM | GI50 (U-251): 10.5 µM (inactive) | GI50 (RXF 393): 6.95 µM (inactive) | GI50 (RPMI-8226): 7.14 µM (inactive) | GI50 (NCI-H522): 3.1 µM (inactive) | GI50 (NCI/ADR-RES): 5.92 µM (inactive) | GI50 (HCC 2998): 7.01 µM (inactive) | GI50 (SW-620): 4.62 µM (inactive) | GI50 (HT-29): 7.31 µM (inactive) | GI50 (MOLT-4): 6.08 µM (inactive) | GI50 (Hs-578T): 6.84 µM (inactive)

Cn1c(=O)c2c(nc3sc4c(n32)C(=O)c2c(O)ccc(O)c2C4=O)n(C)c1=O
GI50 (HOP-92): 2.66 µM (inactive) | GI50 (DU-145): 11.2 µM (inactive) | GI50 (SNB-75): 2.99 µM (inactive) | GI50 (NCI-H226): 53.8 µM (inactive) | GI50 (HL-60): 0.51 µM (active) | GI50 (786-0): 1.75 µM (inactive) | GI50 (CCRF-CEM): 0.305 µM (active) | GI50 (A498): 22.1 µM (inactive) | GI50 (K562): 0.64 µM (active) | GI50 (HOP-62): 12.8 µM (inactive) | GI50 (OVCAR-3): 4.67 µM (inactive) | GI50 (MDA-MB-231): 2.28 µM (inactive) | GI50 (KM12): 2.77 µM (inactive) | GI50 (UO-31): 3.74 µM (inactive) | GI50 (M14): 2.51 µM (inactive) | GI50 (OVCAR-8): 2.34 µM (inactive) | GI50 (SK-MEL-5): 2.46 µM (inactive) | GI50 (T47D): 2.43 µM (inactive) | GI50 (UACC-257): 11.2 µM (inactive) | GI50 (SF-295): 31.2 µM (inactive) | GI50 (SF-268): 6.04 µM (inactive) | GI50 (BT-549): 5.9 µM (inactive) | GI50 (COLO 205): 3.46 µM (inactive) | GI50 (OVCAR-5): 28 µM (inactive) | GI50 (CAKI-1): 6.04 µM (inactive) | GI50 (SNB-19): > 53.1 µM (inactive) | GI50 (TK-10): 5.97 µM (inactive) | GI50 (SR): 0.598 µM (active) | GI50 (MDA-N): 1.86 µM (inactive) | GI50 (SF-539): 3.44 µM (inactive) | GI50 (MDA-MB-435): 4.78 µM (inactive) | GI50 (PC-3): 5.4 µM (inactive) | GI50 (SN12C): 1.63 µM (inactive) | GI50 (LOX IMVI): 0.871 µM (active) | GI50 (IGROV-1): 8.02 µM (inactive) | GI50 (NCI-H460): 20.5 µM (inactive) | GI50 (MCF7): 0.955 µM (active) | GI50 (UACC-62): 4.73 µM (inactive) | GI50 (ACHN): 2.94 µM (inactive) | GI50 (SK-OV-3): 40.7 µM (inactive) | GI50 (A549): 12.7 µM (inactive) | GI50 (NCI-H23): 7.55 µM (inactive) | GI50 (SK-MEL-28): 6.05 µM (inactive) | GI50 (HCT-116): 1.87 µM (inactive) | GI50 (EKVX): 13 µM (inactive) | GI50 (OVCAR-4): 1.46 µM (inactive) | GI50 (Malme-3M): 1.06 µM (active) | GI50 (SK-MEL-2): 4.42 µM (inactive) | GI50 (HCT-15): 1.73 µM | GI50 (U-251): 14.6 µM (inactive) | GI50 (RXF 393): 2.68 µM (inactive) | GI50 (RPMI-8226): 0.298 µM (active) | GI50 (NCI-H522): 0.137 µM (active) | GI50 (NCI/ADR-RES): 2.74 µM (inactive) | GI50 (HCC 2998): 4.11 µM (inactive) | GI50 (SW-620): 0.406 µM (active) | GI50 (HT-29): 2.19 µM (inactive) | GI50 (MOLT-4): 1.31 µM (inactive) | GI50 (Hs-578T): 16.3 µM (inactive)
